Assays:
FsnR = biological target: T1, FsnR (Stenotrophomonas maltophilia, UniProt B2FQU0); test: microscale thermophoresis (MST); type: binding; conditions: PBS buffer; labelled protein
T1 construct: gene Smlt2299; full length, recombinant from E. coli BL21(DE3), C-terminal His6 or GST tag (GST cleaved on column); Red NHS labelled for MST

RavS = biological target: T2, RavS (Stenotrophomonas maltophilia, UniProt B2FQW5); test: microscale thermophoresis (MST); type: binding; conditions: PBS buffer; 20 nM fluorescein-labeled RavS
T2 construct: gene Smlt2324; recombinant from E. coli BL21(DE3), C-terminal His6 or GST tag (GST cleaved); phosphorylated His503; labelled for MST
T2 sequence (B2FQW5 entry or part of it): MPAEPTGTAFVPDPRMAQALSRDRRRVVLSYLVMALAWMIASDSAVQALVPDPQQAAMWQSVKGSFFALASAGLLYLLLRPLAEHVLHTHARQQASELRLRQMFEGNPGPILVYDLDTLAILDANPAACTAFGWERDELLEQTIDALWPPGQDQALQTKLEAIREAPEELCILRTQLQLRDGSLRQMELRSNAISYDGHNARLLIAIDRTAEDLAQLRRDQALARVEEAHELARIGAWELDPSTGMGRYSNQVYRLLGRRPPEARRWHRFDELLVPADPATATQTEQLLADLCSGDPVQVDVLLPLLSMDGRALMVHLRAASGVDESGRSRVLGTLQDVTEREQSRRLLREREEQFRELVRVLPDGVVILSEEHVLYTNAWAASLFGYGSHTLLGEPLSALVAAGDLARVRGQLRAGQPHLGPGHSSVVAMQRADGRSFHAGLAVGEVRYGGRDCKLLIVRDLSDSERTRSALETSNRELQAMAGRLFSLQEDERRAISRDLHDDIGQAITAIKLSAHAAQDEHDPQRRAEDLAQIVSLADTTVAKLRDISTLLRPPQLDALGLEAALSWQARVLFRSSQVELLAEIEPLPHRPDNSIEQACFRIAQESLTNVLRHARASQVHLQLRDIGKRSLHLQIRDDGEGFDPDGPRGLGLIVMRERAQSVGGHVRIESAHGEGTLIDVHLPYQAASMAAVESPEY

T1 sequence (B2FQU0 entry or part of it): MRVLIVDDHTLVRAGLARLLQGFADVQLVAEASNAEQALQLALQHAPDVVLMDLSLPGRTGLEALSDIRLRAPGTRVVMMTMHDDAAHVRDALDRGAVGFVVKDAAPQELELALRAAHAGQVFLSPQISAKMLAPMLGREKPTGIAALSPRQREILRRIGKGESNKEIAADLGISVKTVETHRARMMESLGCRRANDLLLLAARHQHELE

In the case of `Nc1nc2c(ncn2[C@@H]2O[C@@H]3CO[P@](=O)(O)O[C@H]4[C@@H](O)[C@H](n5cnc6c(=O)[nH]c(N)nc65)O[C@@H]4CO[P@](=O)(O)O[C@H]3[C@H]2O)c(=O)[nH]1` [c-di-GMP], the Kd (FsnR) is reported as 3430 ± 1360 nM and the Kd (RavS) is reported as 1480 ± 360 nM.

Reference: article PMC9600515, “Dual Regulatory Role Exerted by Cyclic Dimeric GMP To Control FsnR-Mediated Bacterial Swimming” (mBio, 2022)
